Measurements taken from publication PMC7316778 (Nature Communications, 2020).
Several values for one entry are separate records, joined by “and”; a condition that tells them apart may be missing. Equal entries are not always repeated. Where two headings read alike, the source gives them in different places.

What was measured:
[1] = test system: FES^S700C HL-60 cells; assay: CD11b surface expression, neutrophil differentiation; type: cell-based, human; details: 100 nM; Supplementary Figure 12c; individual replicates; listed as WEL028
[2] = molecular target: BTK (Homo sapiens, UniProt Q06187); assay: SelectScreen kinase assay
Procedure: (§1) Selectivity profiling assays were performed by the Invitrogen SelectScreen™ Services. […] The concentration of ATP was selected to be equal to the KM, unless indicated otherwise.

[3] = molecular target: CDK2/cyclin A (Homo sapiens, UniProt P24941); assay: SelectScreen kinase assay
Procedure: as §1

[4] = molecular target: CSNK1G2 (CK1 gamma 2) (Homo sapiens, UniProt P78368); assay: SelectScreen kinase assay
Procedure: as §1

[5] = molecular target: DYRK3 (Homo sapiens, UniProt O43781); assay: SelectScreen kinase assay
Procedure: as §1

[6] = molecular target: T1, EEF2K (Homo sapiens, UniProt O00418); assay: SelectScreen kinase assay
T1 sequence (O00418 1-725): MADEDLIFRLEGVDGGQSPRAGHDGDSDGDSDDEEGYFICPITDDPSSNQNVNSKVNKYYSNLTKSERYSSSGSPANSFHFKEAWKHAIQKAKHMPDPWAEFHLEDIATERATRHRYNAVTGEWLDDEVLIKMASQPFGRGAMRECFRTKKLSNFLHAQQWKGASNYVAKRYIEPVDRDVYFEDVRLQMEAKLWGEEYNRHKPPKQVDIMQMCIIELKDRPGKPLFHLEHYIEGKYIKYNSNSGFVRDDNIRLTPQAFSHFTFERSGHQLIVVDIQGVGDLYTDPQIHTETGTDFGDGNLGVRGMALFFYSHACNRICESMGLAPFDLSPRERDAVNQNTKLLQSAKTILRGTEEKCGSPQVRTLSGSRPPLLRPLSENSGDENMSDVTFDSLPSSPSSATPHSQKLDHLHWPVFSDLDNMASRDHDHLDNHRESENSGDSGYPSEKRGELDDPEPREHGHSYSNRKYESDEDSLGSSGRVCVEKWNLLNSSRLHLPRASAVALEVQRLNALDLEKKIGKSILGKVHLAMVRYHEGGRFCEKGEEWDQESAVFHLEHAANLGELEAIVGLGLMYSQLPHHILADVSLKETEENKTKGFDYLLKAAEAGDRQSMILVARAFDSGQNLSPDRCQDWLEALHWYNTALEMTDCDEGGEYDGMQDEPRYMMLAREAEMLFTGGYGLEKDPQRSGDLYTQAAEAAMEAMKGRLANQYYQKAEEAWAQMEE
Procedure: as §1

[7] = molecular target: EGFR (ErbB1) (Homo sapiens, UniProt P00533); assay: SelectScreen kinase assay
Procedure: as §1

[8] = molecular target: FRAP1 (mTOR) (Homo sapiens, UniProt P42345); assay: SelectScreen kinase assay
Procedure: as §1

[9] = molecular target: KIT (Homo sapiens, UniProt P10721); assay: SelectScreen kinase assay
Procedure: as §1

[10] = molecular target: MASTL (Homo sapiens, UniProt Q96GX5); assay: SelectScreen kinase assay
Procedure: as §1

[11] = molecular target: NLK (Homo sapiens, UniProt Q9UBE8); assay: SelectScreen kinase assay
Procedure: as §1

[12] = molecular target: PAK3 (Homo sapiens, UniProt O75914); assay: SelectScreen kinase assay
Procedure: as §1

[13] = molecular target: PI4KA (PI4K alpha) (Homo sapiens, UniProt P42356); assay: SelectScreen kinase assay
Procedure: as §1

[14] = molecular target: PRKCG (PKC gamma) (Homo sapiens, UniProt P05129); assay: SelectScreen kinase assay; details: for Inhibition at 1 µM (%): PRKCG (PKC gamma), ZLYTE, ATP Km app
Procedure: as §1

[15] = molecular target: PTK6 (Brk) (Homo sapiens, UniProt Q13882); assay: SelectScreen kinase assay
Procedure: as §1

[16] = molecular target: SGKL (SGK3) (Homo sapiens, UniProt Q96BR1); assay: SelectScreen kinase assay
Procedure: as §1

[17] = molecular target: STK39 (STLK3) (Homo sapiens, UniProt Q9UEW8); assay: SelectScreen kinase assay
Procedure: as §1

[18] = 1 h, 1 μM WEL028, 1 h preincubation
[19] = 1 µM, ZLYTE, ATP Km app, listed as WEL028, 1 µM

MASTL, sequence (Q96GX5 whole entry): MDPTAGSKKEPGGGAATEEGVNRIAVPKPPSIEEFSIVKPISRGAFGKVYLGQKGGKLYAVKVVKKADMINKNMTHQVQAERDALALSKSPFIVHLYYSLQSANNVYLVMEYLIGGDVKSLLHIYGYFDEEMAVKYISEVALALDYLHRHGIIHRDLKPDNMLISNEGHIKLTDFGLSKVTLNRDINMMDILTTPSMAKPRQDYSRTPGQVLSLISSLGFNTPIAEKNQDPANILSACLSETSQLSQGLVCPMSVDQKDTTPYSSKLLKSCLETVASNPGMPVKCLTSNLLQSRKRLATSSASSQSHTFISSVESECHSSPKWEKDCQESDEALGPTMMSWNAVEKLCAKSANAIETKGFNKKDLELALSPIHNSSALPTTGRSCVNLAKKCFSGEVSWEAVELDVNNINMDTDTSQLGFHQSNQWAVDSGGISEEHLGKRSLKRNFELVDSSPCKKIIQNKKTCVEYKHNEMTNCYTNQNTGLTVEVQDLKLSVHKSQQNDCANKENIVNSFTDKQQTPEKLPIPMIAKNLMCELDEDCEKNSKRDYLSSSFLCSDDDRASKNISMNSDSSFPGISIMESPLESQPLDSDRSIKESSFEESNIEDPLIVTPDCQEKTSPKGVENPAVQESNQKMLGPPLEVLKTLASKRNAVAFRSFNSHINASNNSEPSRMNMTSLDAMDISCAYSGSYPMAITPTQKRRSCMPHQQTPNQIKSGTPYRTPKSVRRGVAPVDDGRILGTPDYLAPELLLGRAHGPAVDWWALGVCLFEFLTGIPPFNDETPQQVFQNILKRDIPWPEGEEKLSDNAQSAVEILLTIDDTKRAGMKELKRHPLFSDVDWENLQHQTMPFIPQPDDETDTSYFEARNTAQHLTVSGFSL
PTK6 (Brk), sequence (Q13882 whole entry): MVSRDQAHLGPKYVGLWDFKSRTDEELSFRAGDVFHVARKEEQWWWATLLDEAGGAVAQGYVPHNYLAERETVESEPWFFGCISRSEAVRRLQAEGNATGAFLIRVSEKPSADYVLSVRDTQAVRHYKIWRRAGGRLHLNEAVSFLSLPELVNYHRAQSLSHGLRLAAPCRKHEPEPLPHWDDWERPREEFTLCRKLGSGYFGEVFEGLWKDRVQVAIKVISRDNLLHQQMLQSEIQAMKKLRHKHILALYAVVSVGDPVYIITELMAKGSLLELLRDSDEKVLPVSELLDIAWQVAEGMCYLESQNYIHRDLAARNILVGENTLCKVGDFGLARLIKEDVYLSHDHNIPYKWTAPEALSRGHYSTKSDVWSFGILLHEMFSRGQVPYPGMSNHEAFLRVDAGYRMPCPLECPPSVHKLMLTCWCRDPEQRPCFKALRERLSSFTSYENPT
SGKL (SGK3), sequence (Q96BR1 whole entry): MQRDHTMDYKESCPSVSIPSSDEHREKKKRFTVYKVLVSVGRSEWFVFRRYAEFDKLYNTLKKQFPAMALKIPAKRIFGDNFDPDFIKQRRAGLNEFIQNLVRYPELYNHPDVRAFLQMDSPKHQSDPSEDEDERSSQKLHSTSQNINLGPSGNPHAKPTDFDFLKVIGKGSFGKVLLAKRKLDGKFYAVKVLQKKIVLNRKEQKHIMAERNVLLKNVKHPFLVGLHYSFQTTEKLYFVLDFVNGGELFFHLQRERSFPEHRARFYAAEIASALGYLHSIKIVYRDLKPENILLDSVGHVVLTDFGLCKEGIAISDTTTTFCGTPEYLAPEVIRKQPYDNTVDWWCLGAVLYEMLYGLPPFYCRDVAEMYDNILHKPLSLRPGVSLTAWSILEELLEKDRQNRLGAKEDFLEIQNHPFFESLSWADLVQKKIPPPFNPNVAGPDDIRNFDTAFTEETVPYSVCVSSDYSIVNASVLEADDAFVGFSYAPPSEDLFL
KIT, sequence (P10721 26-976): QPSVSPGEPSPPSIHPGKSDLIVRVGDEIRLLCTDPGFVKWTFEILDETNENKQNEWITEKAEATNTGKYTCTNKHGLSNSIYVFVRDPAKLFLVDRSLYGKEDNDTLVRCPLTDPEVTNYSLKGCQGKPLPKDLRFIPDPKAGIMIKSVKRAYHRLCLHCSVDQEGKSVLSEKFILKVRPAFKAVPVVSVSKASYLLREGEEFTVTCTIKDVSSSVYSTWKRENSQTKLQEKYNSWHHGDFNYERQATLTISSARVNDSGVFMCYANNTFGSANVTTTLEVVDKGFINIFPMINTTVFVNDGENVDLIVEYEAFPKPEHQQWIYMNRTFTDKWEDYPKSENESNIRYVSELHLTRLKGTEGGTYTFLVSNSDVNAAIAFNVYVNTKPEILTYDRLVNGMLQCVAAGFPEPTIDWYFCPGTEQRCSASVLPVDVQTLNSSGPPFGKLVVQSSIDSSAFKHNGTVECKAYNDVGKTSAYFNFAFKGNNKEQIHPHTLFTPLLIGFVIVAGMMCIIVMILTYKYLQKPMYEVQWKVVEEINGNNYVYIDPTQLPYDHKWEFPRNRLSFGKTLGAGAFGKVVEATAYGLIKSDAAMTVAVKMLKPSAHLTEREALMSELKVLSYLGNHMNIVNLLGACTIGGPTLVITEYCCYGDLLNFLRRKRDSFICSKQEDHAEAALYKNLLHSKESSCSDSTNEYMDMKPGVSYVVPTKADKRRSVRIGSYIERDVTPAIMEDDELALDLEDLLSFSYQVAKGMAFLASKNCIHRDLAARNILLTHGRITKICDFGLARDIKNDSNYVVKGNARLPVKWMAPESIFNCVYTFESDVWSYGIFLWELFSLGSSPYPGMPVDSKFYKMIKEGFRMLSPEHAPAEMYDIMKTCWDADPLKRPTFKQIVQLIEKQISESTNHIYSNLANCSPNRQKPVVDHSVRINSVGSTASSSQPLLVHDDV
CSNK1G2 (CK1 gamma 2), sequence (P78368 whole entry): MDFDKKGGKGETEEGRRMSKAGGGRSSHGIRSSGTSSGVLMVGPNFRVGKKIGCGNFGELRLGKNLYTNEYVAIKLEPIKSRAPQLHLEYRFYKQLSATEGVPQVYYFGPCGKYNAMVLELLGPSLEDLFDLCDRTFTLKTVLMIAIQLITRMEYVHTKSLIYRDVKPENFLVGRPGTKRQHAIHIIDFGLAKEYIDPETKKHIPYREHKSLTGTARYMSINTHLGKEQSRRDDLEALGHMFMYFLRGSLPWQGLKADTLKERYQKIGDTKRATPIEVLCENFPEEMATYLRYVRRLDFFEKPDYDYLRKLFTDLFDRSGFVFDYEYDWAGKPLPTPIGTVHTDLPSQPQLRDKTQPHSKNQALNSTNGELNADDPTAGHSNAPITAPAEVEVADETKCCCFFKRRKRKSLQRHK
EGFR (ErbB1), sequence (P00533 25-1210): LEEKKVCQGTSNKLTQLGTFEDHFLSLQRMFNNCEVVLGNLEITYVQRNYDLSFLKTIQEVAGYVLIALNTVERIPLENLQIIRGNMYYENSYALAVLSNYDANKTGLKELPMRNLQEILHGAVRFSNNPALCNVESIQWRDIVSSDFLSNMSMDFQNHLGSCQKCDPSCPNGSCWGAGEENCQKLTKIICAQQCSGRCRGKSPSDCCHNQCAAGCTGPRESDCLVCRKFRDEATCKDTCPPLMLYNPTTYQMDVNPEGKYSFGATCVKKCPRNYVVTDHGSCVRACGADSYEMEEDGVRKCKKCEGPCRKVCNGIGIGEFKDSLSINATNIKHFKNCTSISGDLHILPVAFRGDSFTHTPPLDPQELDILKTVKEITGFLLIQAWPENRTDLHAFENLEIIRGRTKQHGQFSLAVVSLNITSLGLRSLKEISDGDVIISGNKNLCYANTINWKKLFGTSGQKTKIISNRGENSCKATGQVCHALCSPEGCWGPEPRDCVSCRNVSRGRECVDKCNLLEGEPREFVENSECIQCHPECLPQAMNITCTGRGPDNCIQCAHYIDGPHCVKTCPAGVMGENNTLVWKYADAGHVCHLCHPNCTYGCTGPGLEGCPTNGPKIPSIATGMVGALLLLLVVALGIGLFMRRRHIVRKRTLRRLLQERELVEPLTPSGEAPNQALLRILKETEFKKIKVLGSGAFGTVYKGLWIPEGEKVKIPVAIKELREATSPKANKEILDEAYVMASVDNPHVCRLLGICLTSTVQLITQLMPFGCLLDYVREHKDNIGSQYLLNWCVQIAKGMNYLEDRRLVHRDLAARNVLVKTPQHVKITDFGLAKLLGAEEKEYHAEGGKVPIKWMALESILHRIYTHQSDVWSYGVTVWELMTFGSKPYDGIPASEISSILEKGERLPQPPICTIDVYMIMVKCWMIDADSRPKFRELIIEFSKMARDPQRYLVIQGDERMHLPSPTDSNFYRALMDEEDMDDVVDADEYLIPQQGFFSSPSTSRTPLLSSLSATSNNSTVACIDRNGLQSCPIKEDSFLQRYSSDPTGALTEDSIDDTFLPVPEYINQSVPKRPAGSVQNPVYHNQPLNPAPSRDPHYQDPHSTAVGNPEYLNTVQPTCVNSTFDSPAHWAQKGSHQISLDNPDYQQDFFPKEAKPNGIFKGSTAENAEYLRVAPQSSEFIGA
DYRK3, sequence (O43781 whole entry): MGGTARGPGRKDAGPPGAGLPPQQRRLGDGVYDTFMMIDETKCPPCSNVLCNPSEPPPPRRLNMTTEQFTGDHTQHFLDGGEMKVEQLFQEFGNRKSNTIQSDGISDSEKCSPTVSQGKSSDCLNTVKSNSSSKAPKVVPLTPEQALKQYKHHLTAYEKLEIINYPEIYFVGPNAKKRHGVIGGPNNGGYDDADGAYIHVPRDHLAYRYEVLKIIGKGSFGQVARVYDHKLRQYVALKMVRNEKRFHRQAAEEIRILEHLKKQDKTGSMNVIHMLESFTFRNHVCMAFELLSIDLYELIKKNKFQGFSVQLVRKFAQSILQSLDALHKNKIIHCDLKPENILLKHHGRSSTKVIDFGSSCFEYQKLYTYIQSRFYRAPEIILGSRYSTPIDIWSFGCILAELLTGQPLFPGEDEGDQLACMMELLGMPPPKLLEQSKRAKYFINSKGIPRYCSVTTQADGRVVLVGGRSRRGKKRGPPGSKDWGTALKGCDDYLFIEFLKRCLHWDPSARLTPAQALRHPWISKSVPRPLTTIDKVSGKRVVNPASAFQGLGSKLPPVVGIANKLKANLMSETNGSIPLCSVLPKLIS

For `C#CCOc1ccc(Nc2ncc(Cl)c(Nc3ccccc3NC(=O)C=C)n2)c(OC)c1` [Compound 6], the “CD11b-positive cells (%)” value [1] was 93.1005% and 92.0572% and 93.2155%, the “Inhibition (%)” value ([2]; 1 μM WEL028, 1 h preincubation) was 11% and the “Inhibition at 1 µM (%)” value ([2]; BTK, 1 µM, ZLYTE, ATP Km app) was 17%. The “Inhibition (%)” value ([3]; 1 μM WEL028, 1 h preincubation) was -3%, the “Inhibition at 1 µM (%)” value ([3]; CDK2/cyclin A, 1 µM, ZLYTE, ATP Km app, listed as WEL028, 1 µM) was -5% and 0% and the “Inhibition (%)” value ([4]; 1 μM WEL028, 1 h preincubation) was 4%. The “Inhibition at 1 µM (%)” value ([4]; CSNK1G2 (CK1 gamma 2), 1 µM, ZLYTE, ATP Km app, listed as WEL028, 1 µM) was 7% and 1%, the inhibition at 1 µM [5, 18] was 2% and the “Inhibition at 1 µM (%)” value ([5]; DYRK3, 1 µM, ZLYTE, ATP Km app, listed as WEL028, 1 µM) was 0% and 4%. The inhibition at 1 µM [6, 18] was 9%, the “Inhibition at 1 µM (%)” value ([6]; EEF2K, 1 µM, ZLYTE, ATP Km app, listed as WEL028, 1 µM) was 7% and the inhibition at 1 µM ([6]; read-out: Inhibition at 1 µM (%), EEF2K, 1 µM, ZLYTE, ATP Km app) was 12%. The “Inhibition (%)” value ([7]; 1 μM WEL028, 1 h preincubation) was 6%, the “Inhibition at 1 µM (%)” value ([7]; EGFR (ErbB1), 1 µM, ZLYTE, ATP Km app, listed as WEL028, 1 µM) was 8% and the inhibition at 1 µM ([7]; read-out: Inhibition at 1 µM (%), EGFR (ErbB1), 1 µM, ZLYTE, ATP Km app) was 4%. The inhibition at 1 µM [8, 18] was 11%, the “Inhibition at 1 µM (%)” value ([8]; FRAP1 (mTOR), 1 µM, ZLYTE, ATP Km app) was 19% and the inhibition at 1 µM [9, 18] was 18%. For the same molecule, the “Inhibition at 1 µM (%)” value ([9]; KIT, 1 µM, ZLYTE, ATP Km app, listed as WEL028, 1 µM) was 16%, the inhibition at 1 µM ([9]; read-out: Inhibition at 1 µM (%), KIT, 1 µM, ZLYTE, ATP Km app) was 21% and the “Inhibition (%)” value ([10]; 1 μM WEL028, 1 h preincubation) was 3%. For the same molecule, the “Inhibition at 1 µM (%)” value ([10]; MASTL, 1 µM, LanthaScreen Binding, listed as WEL028, 1 µM) was 6% and 0%, the inhibition at 1 µM [11, 18] was 3% and the inhibition at 1 µM ([11]; read-out: Inhibition at 1 µM (%), NLK, 1 µM, LanthaScreen Binding) was 4%. The inhibition at 1 µM [12, 18] was 7%, the “Inhibition at 1 µM (%)” value ([12]; PAK3, 1 µM, ZLYTE, ATP Km app, listed as WEL028, 1 µM) was 6% and the inhibition at 1 µM ([12]; read-out: Inhibition at 1 µM (%), PAK3, 1 µM, ZLYTE, ATP Km app) was 7%. For the same molecule, the inhibition at 1 µM [13, 18] was 7%, the “Inhibition at 1 µM (%)” value ([13]; PI4KA (PI4K alpha), 1 µM, Adapta, ATP 10, listed as WEL028, 1 µM) was 3% and 11% and the inhibition at 1 µM [14, 18] was 1%. The “Inhibition at 1 µM (%)” value [14] was -3%, the “Inhibition at 1 µM (%)” value ([14]; listed as WEL028, 1 µM) was 5% and the “Inhibition at 1 µM (%)” value [15, 19] was 29%. For the same molecule, the inhibition at 1 µM [15, 18] was 31%, the inhibition at 1 µM ([15]; read-out: Inhibition at 1 µM (%), 1 µM, ZLYTE, ATP Km app) was 33% and the “Inhibition at 1 µM (%)” value [16, 19] was -12% and -2%. For the same molecule, the inhibition at 1 µM [16, 18] was -7%, the “Inhibition at 1 µM (%)” value ([17]; 1 µM, LanthaScreen Binding, listed as WEL028, 1 µM) was 6% and the inhibition at 1 µM [17, 18] was 8%. The inhibition at 1 µM ([17]; read-out: Inhibition at 1 µM (%), 1 µM, LanthaScreen Binding) was 11%.
